# According to patent publication US10172868B2, “Substituted quinazolines for inhibiting kinase activity” (NeuPharma, Inc., priority 2013, dated 2019):
# pIC50: −log10 of the molar value.
# Key:
# EGFR (ErbB1) = EGFR (ErbB1) (Homo sapiens (Human), UniProt P00533); assay: Z'-LYTE kinase inhibition assay, EGFR; assay type: biochemical; conditions: for inhibition at 1 µM: read-out: % inhibition against EGFR (Compound at 1 μM); for inhibition at 0.041 µM: read-out: % inhibition against EGFR (Compound at 0.041 μM); for pIC50: read-out: IC50 against EGFR
# EGFR (ErbB1), sequence (P00533 25-1210): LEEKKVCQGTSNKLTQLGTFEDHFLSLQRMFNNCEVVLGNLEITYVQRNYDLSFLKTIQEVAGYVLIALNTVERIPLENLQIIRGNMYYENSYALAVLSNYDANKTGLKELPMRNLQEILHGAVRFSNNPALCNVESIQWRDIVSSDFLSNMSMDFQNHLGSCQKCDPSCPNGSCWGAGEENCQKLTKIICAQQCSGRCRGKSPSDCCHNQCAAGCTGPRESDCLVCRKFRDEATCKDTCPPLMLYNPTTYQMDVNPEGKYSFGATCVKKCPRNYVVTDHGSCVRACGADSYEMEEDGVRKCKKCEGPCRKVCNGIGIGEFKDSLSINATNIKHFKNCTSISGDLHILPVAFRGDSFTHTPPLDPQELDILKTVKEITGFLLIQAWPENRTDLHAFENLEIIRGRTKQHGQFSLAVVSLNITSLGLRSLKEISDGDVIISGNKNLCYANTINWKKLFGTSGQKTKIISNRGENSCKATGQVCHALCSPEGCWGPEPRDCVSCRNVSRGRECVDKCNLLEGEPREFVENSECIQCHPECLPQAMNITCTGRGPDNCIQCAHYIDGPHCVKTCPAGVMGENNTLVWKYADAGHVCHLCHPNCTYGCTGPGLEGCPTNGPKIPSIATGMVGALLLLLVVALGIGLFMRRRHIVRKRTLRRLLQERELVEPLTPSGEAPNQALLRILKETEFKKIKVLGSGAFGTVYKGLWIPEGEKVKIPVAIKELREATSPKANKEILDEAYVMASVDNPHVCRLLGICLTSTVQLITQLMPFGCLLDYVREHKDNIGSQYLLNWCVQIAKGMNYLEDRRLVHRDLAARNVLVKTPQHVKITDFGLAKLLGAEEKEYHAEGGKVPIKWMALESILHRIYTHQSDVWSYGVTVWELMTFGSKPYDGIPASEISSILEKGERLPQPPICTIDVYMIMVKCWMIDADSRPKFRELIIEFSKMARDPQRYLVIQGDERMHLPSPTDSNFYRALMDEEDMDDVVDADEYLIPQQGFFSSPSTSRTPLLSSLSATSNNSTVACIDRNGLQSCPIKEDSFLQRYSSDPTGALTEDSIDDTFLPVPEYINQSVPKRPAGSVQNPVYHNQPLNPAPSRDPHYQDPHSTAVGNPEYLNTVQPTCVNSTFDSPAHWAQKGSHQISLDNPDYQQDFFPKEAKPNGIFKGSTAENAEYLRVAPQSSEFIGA
# Summary of the method: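 IC50 values derived from 10-point, 3-fold compound dilution series (1% DMSO final) using Z'-LYTE fluorescence readout after 60-min development. Reaction: EGFR (1.1-5.25 ng) with 2 μM peptide, 60 min at room temperature in HEPES pH 7.5 buffer containing MgCl2, MnCl2, EGTA, DTT and BRIJ-35.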
# H1975 cells = assay: Inhibition of cancer cell growth, MTT assay, H1975; conditions: Homo sapiens, NCI-H1975, 72 h, read-out: IC50 in H1975 cells
# HCC827 cells = assay: cells; conditions: Homo sapiens, HCC827, 72 h, read-out: IC50 in HCC827 cells
# Method: Taxol (as a positive control. Sigma) and compounds were dissolved in DMSO (Sigma), and the final concentration of DMSO in the medium was 1%. Tumor cells were plated in 96-well plates at densities of about 4000 cells/well of a 96-well plate and allowed to adhere/grow for 24 h. They were then treated with various concentrations of drug for 72 h, 3-(4,5-Dimethylthiazol-2-yl)-2,5-diphenyltetrazolium bromide (MTT, Sigma) was used to determine the number of viable cells at the time of compound addition and the number of cells remaining after 72 h compound exposure. The number of cells remaining after 72 h was compared to the number of viable cells at the time of compound addition by measuring the absorbance at 570 nm, allowing for the calculation of growth inhibition.
# All concentrations of compounds were tested in triplicate and controls were averaged over 4 wells. IC50 was calculated by plotting the concentration of compound vs the percentage of inhibition in treated wells using GraphPad Prism 5.
# The scale utilized in Tables 5 is as follows: +++ less than 100 nM; ++ between 100 nM and 500 nM; and + greater than 500 nM.
# EGFR (ErbB1) T790M L858R = EGFR (ErbB1) T790M L858R (Homo sapiens (Human), UniProt P00533, L858R/T790M); assay: Z'-LYTE kinase inhibition assay, EGFR L858R/T790M; assay type: biochemical; conditions: for inhibition at 1 µM: read-out: % inhibition against EGFR L858R/T790M (Compound at 1 μM); for inhibition at 0.0137 µM: read-out: % inhibition against EGFR L858R/T790M (Compound at 0.0137 μM); for pIC50: read-out: IC50 against EGFR L858R/T790M
# EGFR (ErbB1) T790M L858R, sequence (P00533 25-1210 T790M/L858R): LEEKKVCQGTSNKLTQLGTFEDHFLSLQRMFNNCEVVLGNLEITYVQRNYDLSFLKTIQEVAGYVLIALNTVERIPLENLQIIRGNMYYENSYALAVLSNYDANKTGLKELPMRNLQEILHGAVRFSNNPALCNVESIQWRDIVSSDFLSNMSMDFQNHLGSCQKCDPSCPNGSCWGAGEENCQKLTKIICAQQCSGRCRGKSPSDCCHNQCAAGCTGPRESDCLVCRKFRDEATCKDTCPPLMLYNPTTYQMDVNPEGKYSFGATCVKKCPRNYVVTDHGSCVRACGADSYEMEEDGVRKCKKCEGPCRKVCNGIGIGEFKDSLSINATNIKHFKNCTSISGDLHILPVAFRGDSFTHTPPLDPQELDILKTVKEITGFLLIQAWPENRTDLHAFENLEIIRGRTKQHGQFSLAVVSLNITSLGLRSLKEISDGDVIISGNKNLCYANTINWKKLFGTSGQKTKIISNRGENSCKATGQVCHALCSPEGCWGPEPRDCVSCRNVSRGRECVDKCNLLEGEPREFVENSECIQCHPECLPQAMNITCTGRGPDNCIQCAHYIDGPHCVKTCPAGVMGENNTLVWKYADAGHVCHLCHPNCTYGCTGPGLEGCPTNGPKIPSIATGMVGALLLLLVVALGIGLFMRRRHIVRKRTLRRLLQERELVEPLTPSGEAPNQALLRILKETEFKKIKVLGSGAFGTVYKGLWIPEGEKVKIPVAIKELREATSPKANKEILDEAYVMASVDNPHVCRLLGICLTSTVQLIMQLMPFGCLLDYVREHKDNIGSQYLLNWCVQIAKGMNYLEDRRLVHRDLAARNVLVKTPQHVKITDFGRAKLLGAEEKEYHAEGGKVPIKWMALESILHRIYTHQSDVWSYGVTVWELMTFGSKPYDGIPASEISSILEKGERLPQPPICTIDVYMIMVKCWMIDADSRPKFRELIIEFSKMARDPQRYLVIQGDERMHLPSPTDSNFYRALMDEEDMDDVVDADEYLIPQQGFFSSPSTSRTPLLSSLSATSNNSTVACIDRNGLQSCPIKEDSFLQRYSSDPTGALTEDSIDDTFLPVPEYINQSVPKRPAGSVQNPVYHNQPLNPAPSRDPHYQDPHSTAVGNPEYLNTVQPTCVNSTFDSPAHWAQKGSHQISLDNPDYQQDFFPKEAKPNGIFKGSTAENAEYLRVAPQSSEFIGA
# Summary of the method: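 IC50 taken from 10-point, 3-fold serial dilutions tested in 1% DMSO. The mutant kinase and peptide were prepared in HEPES pH 6.5 buffer with BRIJ-35, MgCl2, EGTA and NaN3, then reacted with ATP for 1 h at room temperature. Development reagent was added for a further hour before the fluorescence readout.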
# BTK = BTK (Homo sapiens (Human), UniProt Q06187); assay: Z'-LYTE kinase inhibition assay, BTK; assay type: biochemical; conditions: for inhibition at 0.041 µM: compound at 0.041 μM, read-out: % inhibition against BTK; for pIC50: read-out: IC50 against BTK
# BTK, sequence (Q06187 whole entry): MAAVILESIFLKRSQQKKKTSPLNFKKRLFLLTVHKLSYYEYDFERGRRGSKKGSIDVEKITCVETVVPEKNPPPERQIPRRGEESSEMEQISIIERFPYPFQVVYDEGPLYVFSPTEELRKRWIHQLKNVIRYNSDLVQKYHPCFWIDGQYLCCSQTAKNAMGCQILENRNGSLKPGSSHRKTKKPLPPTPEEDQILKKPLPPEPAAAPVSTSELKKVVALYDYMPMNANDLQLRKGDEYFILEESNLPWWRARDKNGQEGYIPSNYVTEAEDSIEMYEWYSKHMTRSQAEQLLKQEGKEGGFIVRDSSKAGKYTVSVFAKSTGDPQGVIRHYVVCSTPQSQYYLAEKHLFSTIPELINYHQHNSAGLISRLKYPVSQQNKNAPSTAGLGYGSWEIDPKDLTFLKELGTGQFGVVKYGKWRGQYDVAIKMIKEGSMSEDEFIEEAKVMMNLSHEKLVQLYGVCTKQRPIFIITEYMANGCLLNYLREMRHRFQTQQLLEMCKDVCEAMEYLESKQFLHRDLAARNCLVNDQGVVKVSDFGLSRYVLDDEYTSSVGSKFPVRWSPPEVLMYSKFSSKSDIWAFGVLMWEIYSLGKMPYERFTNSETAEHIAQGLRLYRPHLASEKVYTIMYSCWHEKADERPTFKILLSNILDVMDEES
# Summary of the method: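 Z'-LYTE FRET assay with Tyr 01 peptide in 50 mM HEPES pH 7.5, 10 mM MgCl2, 1 mM EGTA, 0.01% BRIJ-35. Compounds in 1% DMSO were tested as 10-point, 3-fold titrations.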
inhibition at 1 µM (EGFR (ErbB1)) [%],pIC50 (H1975 cells),pIC50 (HCC827 cells),inhibition at 1 µM (EGFR (ErbB1) T790M L858R) [%],inhibition at 0.041 µM (BTK) [%],inhibition at 0.0137 µM (EGFR (ErbB1) T790M L858R) [%],Structure (SMILES),inhibition at 0.041 µM (EGFR (ErbB1)) [%],pIC50 (EGFR (ErbB1)),pIC50 (EGFR (ErbB1) T790M L858R),pIC50 (BTK)
< 50,< 6.30,< 6.30,< 50,< 50,,"Clc1cccc(-c2cccc3cnc(Nc4ccc(N5CCOCC5)cc4)nc23)c1 [Example C008, 8-(3-chlorophenyl)-N-(4-morpholinophenyl)quinazolin-2-amine]",,,,
< 50,< 6.30,< 6.30,< 50,< 50,,"Fc1cccc(-c2cccc3cnc(Nc4ccc(N5CCOCC5)cc4)nc23)c1 [Example C009, 8-(3-fluorophenyl)-N-(4-morpholinophenyl)quinazolin-2-amine]",,,,
> 50,> 7.00,,> 50,> 50,> 50,"C=CC(=O)Nc1cccc(-c2cccc3cnc(Nc4ccc(N5CCN(CCF)CC5)cc4)nc23)c1 [Example C053, N-(3-(2-((4-(4-(2-fluoroethyl)piperazin-1-yl)phenyl)amino)quinazolin-8-yl)phenyl)acrylamide]",< 50,,,
< 50,< 6.30,< 6.30,< 50,,,"Clc1ccccc1-c1cccc2cnc(Nc3ccc(N4CCOCC4)cc3)nc12 [Example C011, 8-(2-chlorophenyl)-N-(4-morpholinophenyl)quinazolin-2-amine]",,,,
> 50,< 6.30,6.30 to 7.00,< 50,> 50,,"C=CC(=O)Nc1cccc(-c2nccc3c(N)nc(Nc4ccc(N5CCOCC5)cc4)nc23)c1 [Example C005, N-(3-(4-amino-2-((4-morpholinophenyl)amino)pyrido[3,4-d]pyrimidin-8-yl)phenyl)acrylamide]",,,,
< 50,< 6.30,< 6.30,< 50,,,"Fc1ccc(Cl)cc1-c1cccc2cnc(Nc3ccc(N4CCOCC4)cc3)nc12 [Example C007, 8-(5-chloro-2-fluorophenyl)-N-(4-morpholinophenyl)quinazolin-2-amine]",,,,
< 50,< 6.30,< 6.30,> 50,< 50,,"c1ccc(-c2cccc3cnc(Nc4ccc(N5CCOCC5)cc4)nc23)cc1 [Example C004, N-(4-morpholinophenyl)-8-phenylquinazolin-2-amine]",,,,
> 50,6.30 to 7.00,> 7.00,> 50,> 50,< 50,"C=CC(=O)Nc1cccc(-c2cccc3cnc(Nc4ccc(N5CCOCC5)cc4)nc23)c1 [Example C001, N-(3-(2-((4-morpholinophenyl)amino)quinazolin-8-yl)phenyl)acrylamide]",,,> 7.00,
< 50,6.30 to 7.00,> 7.00,> 50,> 50,,"C=CC(=O)Nc1cccc(-c2nccc3cnc(Nc4ccc(N5CCOCC5)cc4)nc23)c1 [Example C012, N-(3-(2-((4-morpholinophenyl)amino)pyrido[3,4-d]pyrimidin-8-yl)phenyl)acrylamide]",,,,
< 50,< 6.30,< 6.30,< 50,,,"Fc1ccccc1-c1cccc2cnc(Nc3ccc(N4CCOCC4)cc3)nc12 [Example C010, 8-(2-fluorophenyl)-N-(4-morpholinophenyl)quinazolin-2-amine]",,,,
> 50,6.30 to 7.00,> 7.00,> 50,,> 50,"C=CC(=O)Nc1cccc(-c2cccc3cnc(Nc4ccc(N5CCN(C)CC5)cc4OC)nc23)c1 [Example C003, N-(3-(2-((2-methoxy-4-(4-methylpiperazin-1-yl)phenyl)amino)quinazolin-8-yl)phenyl)acrylamide]",,,> 7.00,
,> 7.00,,,,> 50,"C=CC(=O)Nc1cccc(-c2cccc3cnc(Nc4ccc(N5CCN(C)CC5)cc4F)nc23)c1 [Example C044, N-(3-(2-((2-fluoro-4-(4-methylpiperazin-1-yl)phenyl)amino)quinazolin-8-yl)phenyl)acrylamide]",> 50,> 7.00,> 7.00,> 7.00
< 50,,6.30 to 7.00,> 50,,,"C=CC(=O)Nc1cccc(-c2cccc3cnc(Nc4ccc(N5CCOCC5)cc4OC)nc23)c1 [Example C002, N-(3-(2-((2-methoxy-4-morpholinophenyl)amino)quinazolin-8-yl)phenyl)acrylamide]",,,,

Structure (SMILES),inhibition at 1 µM (EGFR (ErbB1)) [%],pIC50 (H1975 cells),pIC50 (HCC827 cells),inhibition at 1 µM (EGFR (ErbB1) T790M L858R) [%],inhibition at 0.041 µM (BTK) [%],inhibition at 0.0137 µM (EGFR (ErbB1) T790M L858R) [%],inhibition at 0.041 µM (EGFR (ErbB1)) [%],pIC50 (EGFR (ErbB1)),pIC50 (EGFR (ErbB1) T790M L858R),pIC50 (BTK)
"C=CC(=O)Nc1cccc(-c2cccc3cnc(Nc4ccc(N5CCN(C)CC5)cc4)nc23)c1 [Example C021, N-(3-(2-((4-(4-methylpiperazin-1-yl)phenyl)amino)quinazolin-8-yl)phenyl)acrylamide]",,> 7.00,> 7.00,,> 50,,> 50,> 7.00,> 7.00,> 7.00
"C=CC(=O)Nc1cccc(-c2cccc3cnc(Nc4ccc(N5CCN(CCO)CC5)cc4)nc23)c1 [Example C059, N-(3-(2-((4-(4-(2-hydroxyethyl)piperazin-1-yl)phenyl)amino)quinazolin-8-yl)phenyl)acrylamide]",,> 7.00,> 7.00,,,,> 50,> 7.00,> 7.00,> 7.00
"C=CC(=O)Nc1cccc(-c2cccc3cnc(Nc4ccc(N5CCN(C)CC5)nc4)nc23)c1 [Example C041, N-(3-(2-((6-(4-methylpiperazin-1-yl)pyridin-3-yl)amino)quinazolin-8-yl)phenyl)acrylamide]",,6.30 to 7.00,> 7.00,,,,> 50,> 7.00,> 7.00,> 7.00
